Molecules are shown by their SMILES.

This experiment has as its target T1, ΔF508-CFTR (Homo sapiens, UniProt P13569, DEL508-508).
T1 construct: Primary lung epithelial cells (hBEs) homozygous for the Cystic Fibrosis-causing ΔF508 mutation; endogenous in cells; host or cells: primary lung (bronchial) epithelial cells (hBE) homozygous for ΔF508, differentiated at an air-liquid interface
Nature of the experiment: hBE equivalent current (Ieq) assay, AUC of equivalent chloride current. Format: cell-based. The settings on record: compound at 10 uM, 24 h, primary hBE cells homozygous ΔF508; AUC increase relative to VX-809 at 1 uM. The procedure:
Primary lung epithelial cells homozygous for the Cystic Fibrosis-causing ΔF508 mutation were differentiated for a minimum of 4 weeks in an air-liquid interface on Costar 24 well HTS filter plates prior to the equivalent current (Ieq) measurements. Cells were apically mucus-washed for 30 minutes 24 h prior to treatment with compounds. The basolateral media was removed and replaced with media containing the compound of interest diluted to its final concentration from DMSO stocks. Treated cells were incubated at 37° C. and 5% CO2 for 24 hours. At the end of the treatment period, the media was changed to the Ieq experimental solution for 30 minutes before the experiment and plates are maintained in a CO2-free incubator during this period. The plates containing the cells were then placed in pre-warmed heating blocks at 36° C.±0.5 for 15 minutes before measurements are taken. The transepithelial voltage (VT) and conductance (GT) were measured using a custom 24 channel current clamp (TECC-24) with 24 well electrode manifold. The Ieq assay measurements were made following additions with standardized time periods: • 1. The baseline VT and GT values were measured for approximately 20 minutes. • 2. Benzamil was added to block ENaC for 15 minutes. • 3. Forskolin plus VX-770 were added to maximally activate ΔF508-CFTR for 27 minutes. • 4. Bumetanide was added to inhibit the NaK2Cl cotransporter and shut-off secretion of chloride. The activity data captured was the area under the curve (AUC) for the traces of the equivalent chloride current. The AUC was collected from the time of the forskolin/VX-770 addition until the inhibition by bumetanide addition. Correction in response to compound treatment was scored as the increase in the AUC for compound-treated samples over that of vehicle-treated samples. (++ indicates activity ≧25% run at 10 uM of VX-809 at 1 uM, + indicates activity 10 to ≦25% run at 10 uM of VX-809 at 1 uM.

T1 sequence (P13569 with tags, fused parts or gaps DEL508-508): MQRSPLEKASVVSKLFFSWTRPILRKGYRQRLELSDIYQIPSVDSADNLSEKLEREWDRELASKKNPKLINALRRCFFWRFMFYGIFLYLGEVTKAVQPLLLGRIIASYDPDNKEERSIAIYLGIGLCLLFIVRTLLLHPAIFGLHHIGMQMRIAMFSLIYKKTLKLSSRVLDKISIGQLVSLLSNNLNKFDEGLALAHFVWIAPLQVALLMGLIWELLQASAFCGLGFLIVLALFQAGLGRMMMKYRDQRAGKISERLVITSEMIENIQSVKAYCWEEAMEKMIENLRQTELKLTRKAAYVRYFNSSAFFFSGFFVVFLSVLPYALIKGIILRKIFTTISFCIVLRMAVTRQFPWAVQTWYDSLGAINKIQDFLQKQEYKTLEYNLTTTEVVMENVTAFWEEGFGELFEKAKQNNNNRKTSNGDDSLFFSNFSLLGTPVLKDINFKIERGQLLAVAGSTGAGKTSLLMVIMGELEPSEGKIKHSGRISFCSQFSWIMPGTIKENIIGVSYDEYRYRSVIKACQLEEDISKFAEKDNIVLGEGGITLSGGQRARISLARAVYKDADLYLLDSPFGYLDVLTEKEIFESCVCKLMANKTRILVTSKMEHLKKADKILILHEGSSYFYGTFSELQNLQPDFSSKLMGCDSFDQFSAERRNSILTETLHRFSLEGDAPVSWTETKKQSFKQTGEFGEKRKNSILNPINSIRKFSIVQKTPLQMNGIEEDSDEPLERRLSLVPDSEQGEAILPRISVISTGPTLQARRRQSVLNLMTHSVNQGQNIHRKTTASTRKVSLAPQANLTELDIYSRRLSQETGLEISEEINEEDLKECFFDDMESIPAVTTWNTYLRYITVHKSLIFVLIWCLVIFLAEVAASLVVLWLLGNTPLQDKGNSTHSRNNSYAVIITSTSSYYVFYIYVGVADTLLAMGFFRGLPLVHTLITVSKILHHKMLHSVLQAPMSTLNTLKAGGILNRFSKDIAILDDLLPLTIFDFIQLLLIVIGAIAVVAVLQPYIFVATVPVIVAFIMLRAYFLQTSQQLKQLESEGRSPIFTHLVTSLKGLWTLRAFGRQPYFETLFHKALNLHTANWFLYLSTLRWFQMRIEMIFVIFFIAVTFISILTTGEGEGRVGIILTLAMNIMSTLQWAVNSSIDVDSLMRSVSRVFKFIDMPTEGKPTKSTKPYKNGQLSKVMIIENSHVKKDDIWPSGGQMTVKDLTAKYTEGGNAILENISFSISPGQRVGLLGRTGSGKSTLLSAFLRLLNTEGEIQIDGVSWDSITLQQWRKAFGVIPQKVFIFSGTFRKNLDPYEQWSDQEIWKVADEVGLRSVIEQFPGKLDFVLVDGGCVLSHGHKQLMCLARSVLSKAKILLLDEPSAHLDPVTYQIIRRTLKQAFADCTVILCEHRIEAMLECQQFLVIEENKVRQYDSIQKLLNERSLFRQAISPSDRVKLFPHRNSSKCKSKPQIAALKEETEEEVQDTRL

Turning to `O=C(NCC1CCCO1)c1cc(-c2ccccc2)on1` (stereo not drawn) [Compound 1], the “Ieq hBE Activity” value was “++ (++ indicates activity ≧25% run at 10 uM of VX-809 at 1 uM)”.
For `O=C(NC[C@@H]1CCCO1)c1cc(-c2ccccc2)on1` [Compound 2, (S)-5-phenyl-N-((tetrahydrofuran-2-yl)methyl)isoxazole-3-carboxamide] the value was “++ (++ indicates activity ≧25% run at 10 uM of VX-809 at 1 uM)”; for `O=C(NCCN1CCOCC1)c1cc(-c2ccccc2)on1` [Compound 4], “++ (++ indicates activity ≧25% run at 10 uM of VX-809 at 1 uM)”; for `O=C(NCCN1CCOC1=O)c1cc(-c2ccccc2)on1` [Compound 5], “++ (++ indicates activity ≧25% run at 10 uM of VX-809 at 1 uM)”.
For `O=C(NCCc1cnccn1)c1cc(-c2ccccc2)on1` [Compound 6] the value was “++ (++ indicates activity ≧25% run at 10 uM of VX-809 at 1 uM)”; for `O=C(NCC(O)c1ccncc1)c1cc(-c2ccccc2)on1` (stereo not drawn) [Compound 7], “++ (++ indicates activity ≧25% run at 10 uM of VX-809 at 1 uM)”; for `Cc1nnc(CCNC(=O)c2cc(-c3ccccc3)on2)s1` [Compound 8], “++ (++ indicates activity ≧25% run at 10 uM of VX-809 at 1 uM)”.
As to `CCn1nc(C)c(CCNC(=O)c2cc(-c3ccccc3)on2)c1C` [Compound 10], the “Ieq hBE Activity” value is listed as “+ (+ indicates activity 10 to ≦25% run at 10 uM of VX-809 at 1 uM)”.
For `COCc1noc(CCNC(=O)c2cc(-c3ccccc3)on2)n1` [Compound 11] the value was “++ (++ indicates activity ≧25% run at 10 uM of VX-809 at 1 uM)”.
With `O=C(NCCc1noc(C2CCCC2)n1)c1cc(-c2ccccc2)on1` [Compound 12], the “Ieq hBE Activity” value is recorded as “++ (++ indicates activity ≧25% run at 10 uM of VX-809 at 1 uM)”.
In the case of `O=C(NCCCN1CCOCC1)c1cc(-c2ccccc2)on1` [Compound 13], the “Ieq hBE Activity” value is “++ (++ indicates activity ≧25% run at 10 uM of VX-809 at 1 uM)”.
For `O=C(NCCCN1CCOCC1)c1cc(-c2cccs2)on1` [Compound 14] the value was “++ (++ indicates activity ≧25% run at 10 uM of VX-809 at 1 uM)”; for `O=C(NCCCn1ccnc1)c1cc(-c2ccc(F)cc2)on1` [Compound 15], “+ (+ indicates activity 10 to ≦25% run at 10 uM of VX-809 at 1 uM)”; for `Cn1c(CCCNC(=O)c2cc(-c3ccccc3)on2)nc2ccccc21` [Compound 17], “+ (+ indicates activity 10 to ≦25% run at 10 uM of VX-809 at 1 uM)”.
Consider `COCCNC(=O)c1cc(-c2ccc(F)cc2)on1` [Compound 19], for which the “Ieq hBE Activity” value was “++ (++ indicates activity ≧25% run at 10 uM of VX-809 at 1 uM)”.
`O=C(NCc1ccco1)c1cc(-c2ccccc2)on1` [Compound 20]: the “Ieq hBE Activity” value is “+ (+ indicates activity 10 to ≦25% run at 10 uM of VX-809 at 1 uM)”.
Consider `Cn1ccc(CNC(=O)c2cc(-c3ccccc3)on2)n1` [Compound 27], for which the “Ieq hBE Activity” value was “+ (+ indicates activity 10 to ≦25% run at 10 uM of VX-809 at 1 uM)”.
For `CCCn1cc(CNC(=O)c2cc(-c3ccccc3)on2)cn1` [Compound 30] the value was “+ (+ indicates activity 10 to ≦25% run at 10 uM of VX-809 at 1 uM)”.
`COCc1noc(CNC(=O)c2cc(-c3ccccc3)on2)n1` [Compound 35]: the “Ieq hBE Activity” value is “++ (++ indicates activity ≧25% run at 10 uM of VX-809 at 1 uM)”.
For `CSCc1noc(CNC(=O)c2cc(-c3ccccc3)on2)n1` [Compound 36] the value was “++ (++ indicates activity ≧25% run at 10 uM of VX-809 at 1 uM)”.
As for `O=C(NCc1ccccn1)c1cc(-c2ccccc2)on1` [Compound 41], the entry is “+ (+ indicates activity 10 to ≦25% run at 10 uM of VX-809 at 1 uM)”.
In the case of `O=C(NCC1CCCC1)c1cc(-c2ccccc2)on1` [Compound 51], the “Ieq hBE Activity” value is on record as “+ (+ indicates activity 10 to ≦25% run at 10 uM of VX-809 at 1 uM)”.
As for `O=C(NCC1CCOC1)c1cc(-c2ccccc2)on1` (stereo not drawn) [Compound 52], the entry is “++ (++ indicates activity ≧25% run at 10 uM of VX-809 at 1 uM)”; as for `O=C(NCCC1CCOCC1)c1cc(-c2ccccc2)on1` [Compound 90], “++ (++ indicates activity ≧25% run at 10 uM of VX-809 at 1 uM)”.
As for `CN1CCN(CCNC(=O)c2cc(-c3ccccc3)on2)CC1` [Compound 92], the entry is “++ (++ indicates activity ≧25% run at 10 uM of VX-809 at 1 uM)”; as for `O=C(NCCN1C(=O)CSC1=O)c1cc(-c2ccccc2)on1` [Compound 94], “+ (+ indicates activity 10 to ≦25% run at 10 uM of VX-809 at 1 uM)”.
For `O=C(NCCc1ccccc1)c1cc(-c2ccccc2)on1` [Compound 95] the value was “++ (++ indicates activity ≧25% run at 10 uM of VX-809 at 1 uM)”; for `NS(=O)(=O)c1ccc(CCNC(=O)c2cc(-c3ccccc3)on2)cc1` [Compound 97], “++ (++ indicates activity ≧25% run at 10 uM of VX-809 at 1 uM)”.
Consider `O=C(NCCc1ccccn1)c1cc(-c2ccccc2)on1` [Compound 100], for which the “Ieq hBE Activity” value is listed as “+ (+ indicates activity 10 to ≦25% run at 10 uM of VX-809 at 1 uM)”.
Regarding `O=C(NCCc1cccnc1)c1cc(-c2ccccc2)on1` [Compound 101], the “Ieq hBE Activity” value is listed as “++ (++ indicates activity ≧25% run at 10 uM of VX-809 at 1 uM)”.
For `O=C(NCCc1ccncc1)c1cc(-c2ccccc2)on1` [Compound 102] the value was “++ (++ indicates activity ≧25% run at 10 uM of VX-809 at 1 uM)”; for `O=C(NCCc1csc(-c2ncccn2)n1)c1cc(-c2ccccc2)on1` [Compound 110], “++ (++ indicates activity ≧25% run at 10 uM of VX-809 at 1 uM)”.
As for `Cc1nn2cc(CCNC(=O)c3cc(-c4ccccc4)on3)nc2s1` [Compound 114], the entry is “++ (++ indicates activity ≧25% run at 10 uM of VX-809 at 1 uM)”; as for `O=C(NCCn1nccn1)c1cc(-c2ccccc2)on1` [Compound 115], “++ (++ indicates activity ≧25% run at 10 uM of VX-809 at 1 uM)”.
`O=C(NCCc1c[nH]c2ccccc12)c1cc(-c2ccccc2)on1` [Compound 120]: the “Ieq hBE Activity” value is listed as “++ (++ indicates activity ≧25% run at 10 uM of VX-809 at 1 uM)”.
For `O=C(NCCCN1CCOCC1)c1cc(-c2ccc(F)cc2)on1` [Compound 128] the value was “+ (+ indicates activity 10 to ≦25% run at 10 uM of VX-809 at 1 uM)”; for `O=C(NCCCN1CCOCC1)c1cc(-c2ccccc2F)on1` [Compound 135], “+ (+ indicates activity 10 to ≦25% run at 10 uM of VX-809 at 1 uM)”; for `COCCNC(=O)c1cc(-c2ccccc2F)on1` [Compound 150], “+ (+ indicates activity 10 to ≦25% run at 10 uM of VX-809 at 1 uM)”.
As for `COCCNC(=O)c1cc(-c2ccccc2OC)on1` [Compound 153], the entry is “++ (++ indicates activity ≧25% run at 10 uM of VX-809 at 1 uM)”; as for `COCCNC(=O)c1cc(-c2ccc(C(F)(F)F)cc2)on1` [Compound 161], “+ (+ indicates activity 10 to ≦25% run at 10 uM of VX-809 at 1 uM)”.
In the case of `O=C(NCC(O)COCc1ccccc1)c1cc(-c2ccccc2)on1` (stereo not drawn) [Compound 172], the “Ieq hBE Activity” value is on record as “+ (+ indicates activity 10 to ≦25% run at 10 uM of VX-809 at 1 uM)”.
As for `O=C(NCCCn1cccc1)c1cc(-c2ccccc2)on1` [Compound 186], the entry is “++ (++ indicates activity ≧25% run at 10 uM of VX-809 at 1 uM)”.
For `Cn1nccc1CCCNC(=O)c1cc(-c2ccccc2)on1` [Compound 188] the value was “++ (++ indicates activity ≧25% run at 10 uM of VX-809 at 1 uM)”; for `O=C(NCCCn1cccn1)c1cc(-c2ccccc2)on1` [Compound 189], “++ (++ indicates activity ≧25% run at 10 uM of VX-809 at 1 uM)”.
As for `Cc1nc(CCCNC(=O)c2cc(-c3ccccc3)on2)sc1C` [Compound 191], the entry is “++ (++ indicates activity ≧25% run at 10 uM of VX-809 at 1 uM)”; as for `O=C(NCCCn1cncn1)c1cc(-c2ccccc2)on1` [Compound 192], “++ (++ indicates activity ≧25% run at 10 uM of VX-809 at 1 uM)”.
In the case of `O=C(NCCCc1ccoc1)c1cc(-c2ccccc2)on1` [Compound 194], the “Ieq hBE Activity” value was “+ (+ indicates activity 10 to ≦25% run at 10 uM of VX-809 at 1 uM)”.
For `Cn1cncc1CCCNC(=O)c1cc(-c2ccccc2)on1` [Compound 195] the value was “++ (++ indicates activity ≧25% run at 10 uM of VX-809 at 1 uM)”.
For `Cn1cnc(CCCNC(=O)c2cc(-c3ccccc3)on2)c1` [Compound 197] the value was “++ (++ indicates activity ≧25% run at 10 uM of VX-809 at 1 uM)”.
As for `Cn1ccc(CCCNC(=O)c2cc(-c3ccccc3)on2)c1` [Compound 198], the entry is “++ (++ indicates activity ≧25% run at 10 uM of VX-809 at 1 uM)”; as for `O=C(NCCCn1nccc1C1CC1)c1cc(-c2ccccc2)on1` [Compound 200], “++ (++ indicates activity ≧25% run at 10 uM of VX-809 at 1 uM)”.

The record behind these values is patent US20160151335A1, “METHODS OF MODULATING CFTR ACTIVITY” (PROTEOSTASIS THERAPEUTICS, INC., priority 2013, published 2016).
